Reference: ChEMBL document CHEMBL5096210, “Discovery of Betulinic Acid Derivatives as Potent Intestinal Farnesoid X Receptor Antagonists to Ameliorate Nonalcoholic Steatohepatitis” (J Med Chem, 2022)
The source made the active and inactive calls. The calls are words filed in the database; no cut-off is given here.

Columns and labels:
Mus musculus [1] = experiment: Anti-NASH activity in GAN-induced […] mouse assessed as reduction in random blood glucose level at 10 mg/kg measured upto 120 mins; format: functional, organism-based
Mus musculus [2] = species on record: Mus musculus; experiment: Anti-NASH activity in GAN diet-induced […] mouse assessed as decrease in hydroxyproline in liver; format: functional, organism-based
Mus musculus [3] = species on record: Mus musculus; experiment: Anti-NASH activity in GAN diet-induced […] mouse assessed as reduction of bile acid pool size in ileum; format: functional, organism-based
Liver [4] = experiment: Anti-NASH activity in GAN diet-induced […] mouse liver assessed as reduction in hepatocyte collagen deposition by Oil Red O staining based assay; format: functional, cell-based
Mus musculus [5] = experiment: Anti-NASH activity in HFMCD diet-induced […] mouse assessed as reduction in AST serum level at 30 mg/kg, po for 4 weeks; format: functional, organism-based
[6] = target: T1, Bile acid receptor (Mus musculus) (UniProt Q60641); experiment: In vivo antagonist activity against FXR in mouse assessed as reduction in Fgf15 level in presence of GW4064; format: functional
T1 sequence (whole entry): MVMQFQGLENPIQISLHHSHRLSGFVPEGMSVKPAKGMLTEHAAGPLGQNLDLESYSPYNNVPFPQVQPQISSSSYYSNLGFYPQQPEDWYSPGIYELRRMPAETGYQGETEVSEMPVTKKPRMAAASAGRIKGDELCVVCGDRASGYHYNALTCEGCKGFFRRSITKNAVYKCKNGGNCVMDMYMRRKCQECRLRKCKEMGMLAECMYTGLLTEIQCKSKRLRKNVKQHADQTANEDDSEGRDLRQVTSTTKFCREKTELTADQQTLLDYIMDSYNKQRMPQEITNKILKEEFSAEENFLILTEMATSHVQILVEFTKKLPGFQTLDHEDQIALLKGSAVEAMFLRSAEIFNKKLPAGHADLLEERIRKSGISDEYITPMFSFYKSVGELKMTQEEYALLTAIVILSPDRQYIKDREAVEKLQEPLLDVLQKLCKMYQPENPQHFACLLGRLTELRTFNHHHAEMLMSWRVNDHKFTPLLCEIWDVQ

Mus musculus [7] = species on record: Mus musculus; experiment: Anti-NASH activity in GAN diet-induced […] mouse assessed as downregulation of Ccl2 level; format: functional, organism-based
Liver [8] = experiment: Anti-NASH activity in GAN diet-induced […] mouse liver assessed as reduction in macrosteatosis by H and E staining based analysis; format: functional
Mus musculus [9] = species on record: Mus musculus; experiment: Anti-NASH activity in GAN diet-induced […] mouse assessed as bile acid level in serum; format: functional, organism-based
Mus musculus [10] = experiment: Anti-NASH activity in HFMCD diet-induced […] mouse assessed as reduction in hepatic TG concentration at 10 to 30 mg/kg, po for 4 weeks; format: functional, organism-based; details: dose 10-30 mg/kg
Mus musculus [11] = species on record: Mus musculus; experiment: Anti-NASH activity in GAN diet-induced […] mouse assessed as increase in hepatic bile acid synthesis; format: functional, organism-based
Mus musculus [12] = species on record: Mus musculus; experiment: Anti-NASH activity in GAN diet-induced […] mouse assessed as upregulation of Cyp8b1 mRNA expression in liver; format: functional, organism-based
Mus musculus [13] = species on record: Mus musculus; experiment: Anti-NASH activity in GAN diet-induced […] mouse assessed as upregulation of Ppara mRNA expression level; format: functional, organism-based
[14] = target: T1, Bile acid receptor (Mus musculus); experiment: In vivo antagonist activity against FXR in mouse assessed as reduction in Tgr5 expression in small intestine organoids; format: functional
[15] = target: T1, Bile acid receptor (Mus musculus); experiment: In vivo antagonist activity against FXR in microbeta depleted mouse assessed as reduction in taurocholic acid induced FXR mRNA expression in hepatic signaling at 10 mg/kg, po incubated for 2 to 48 hrs; format: functional, organism-based; details: time 2-48 hrs
Mus musculus [16] = species on record: Mus musculus; experiment: Anti-NASH activity in GAN diet-induced […] mouse assessed as reduction in hepatic cholesterol level; format: functional, organism-based
[17] = target: T1, Bile acid receptor (Mus musculus); experiment: In vivo antagonist activity against FXR in microbeta depleted mouse assessed as reduction in taurocholic acid induced Fgf15 mRNA expression in ileum at 10 mg/kg, po incubated for 2 to 48 hrs; format: functional, organism-based; details: time 2-48 hrs
Mus musculus [18] = experiment: Anti-NASH activity in GAN-induced mouse assessed as increase in insulin sensitivity at 10 mg/kg; format: functional, organism-based
Mus musculus [19] = experiment: Anti-NASH activity in GAN diet-induced […] mouse assessed as reduction of ceramide level in serum administered orally for 12 weeks; format: functional, organism-based; details: route po
[20] = target: T1, Bile acid receptor (Mus musculus); experiment: In vivo antagonist activity against FXR in mouse assessed as reduction in Fgf15 level in presence of CDCA; format: functional
Mus musculus [21] = species on record: Mus musculus; experiment: Anti-NASH activity in GAN diet-induced […] mouse assessed as reduction in mature Il1beta; format: functional, organism-based
Mus musculus [22] = experiment: Anti-NASH activity in GAN-induced […] mouse assessed as increase in rectal temperature at 10 mg/kg; format: functional, organism-based
Mus musculus [23] = species on record: Mus musculus; experiment: Anti-NASH activity in GAN diet-induced […] mouse assessed as reduction in Fabp3 mRNA expression level; format: functional, organism-based
[24] = Drug metabolism in C57BL6 mouse liver assessed as ((1S,3aS,5aR,5bR,7aR,9R,11aR,11bR,13aR,13bR)-9-hydroxy-1-isopropyl-5a,5b,8,8,11a-pentamethylicosahydro-1H-cyclopenta[a]chrysene-3a-carbonyl)glycine formation at 10 mg/kg, po administered as single dose measured after 2 hrs; format: ADME, organism-based; details: in vivo
Mus musculus [25] = species on record: Mus musculus; experiment: Anti-NASH activity in GAN diet-induced […] mouse assessed as suppression of O-sta expression; format: functional, organism-based
Mus musculus [26] = experiment: Anti-NASH activity in HFMCD diet-induced […] mouse assessed as reduction in hepatic hydroxyproline level at 30 mg/kg, po for 4 weeks; format: functional, organism-based
Mus musculus [27] = experiment: Anti-NASH activity in GAN-induced […] mouse assessed as upregulation of Ucp1 expression in inguinal white adipose tissue at 10 mg/kg; format: functional, organism-based
Mus musculus [28] = experiment: Anti-NASH activity in GAN diet-induced […] mouse assessed as reduction of glycosyl-ceramide level in serum administered orally for 12 weeks; format: functional, organism-based; details: route po
[29] = Cytotoxicity against HEK293T cells cotransfected with pCMV-Script-hFXR/pGL4.11-hSHP-Luciferase incubated for 24 hrs in presence of GW4064 by celltiter-blue cell viability assay; format: toxicity, cell-based, HEK-293T; details: human
Liver [30] = experiment: Anti-NASH activity in GAN diet-induced […] mouse liver assessed as reduced NAFLD activity score; format: functional
Mus musculus [31] = species on record: Mus musculus; experiment: Anti-NASH activity in GAN diet-induced […] mouse assessed as reduction in Col3a1 level; format: functional, organism-based
Mus musculus [32] = species on record: Mus musculus; experiment: Anti-NASH activity in GAN diet-induced […] mouse assessed as suppression of Shp expression; format: functional, organism-based
Liver [33] = experiment: Anti-NASH activity in GAN diet-induced […] mouse liver assessed as reduction in hepatocyte collagen deposition by H and E staining based analysis; format: functional, cell-based
[34] = Drug metabolism in C57BL6 mouse Gall bladder assessed as ((1S,3aS,5aR,5bR,7aR,9R,11aR,11bR,13aR,13bR)-9-hydroxy-1-isopropyl-5a,5b,8,8,11a-pentamethylicosahydro-1H-cyclopenta[a]chrysene-3a-carbonyl)glycine formation at 10 mg/kg, po administered as single dose measured after 2 hrs; format: ADME, organism-based; details: in vivo

CCCC(=O)O[C@@H]1CC[C@]2(C)[C@H]3CC[C@@H]4[C@H]5[C@H](C(C)C)CC[C@]5(C(=O)NCC(=O)O)CC[C@@]4(C)[C@]3(C)CC[C@H]2C1(C)C
Activity (Mus musculus [1]): Active
Activity (Mus musculus [2]): Active
Activity (Mus musculus [3]): Active
Activity (Liver [4]): Active
Activity (Mus musculus [5]): Active
Activity [6]: Active
Activity (Mus musculus [7]): Active
Activity (Liver [8]): Active
Activity (Mus musculus [9]): Active
Activity (Mus musculus [10]): Active
Activity (Mus musculus [11]): Active
Activity (Mus musculus [12]): Active
Activity (Mus musculus [13]): Active
Activity [14]: Active
Activity [15]: Active
Activity (Mus musculus [16]): Active
Activity [17]: Active
Activity (Mus musculus [18]): Active
Activity (Mus musculus [19]): Active
Activity [20]: Active
Activity (Mus musculus [21]): Active
Activity (Mus musculus [22]): Active
Activity (Mus musculus [23]): Active
Drug metabolism [24]: Metabolite_Detected
Activity (Mus musculus [25]): Active
Activity (Mus musculus [26]): Active
Activity (Mus musculus [27]): Active
Activity (Mus musculus [28]): Active
IC50 at 24 h [29]: > 100 µM
Activity (Liver [30]): Active
Activity (Mus musculus [31]): Active
Activity (Mus musculus [32]): Active
Activity (Liver [33]): Active
Drug metabolism [34]: Metabolite_Detected
